We go through 21 compounds from patent US8030336B2, “Nicotinamide-based kinase inhibitors” (YM Biosciences Australia Pty Ltd, priority 2002, dated 2011).

The inhibition is the share of the control response that was lost under treatment.

What all share (assay type): biochemical
The target of test [1] is T1, abl (Homo sapiens, UniProt P00519).
T1 sequence (P00519 242-493 limits assumed): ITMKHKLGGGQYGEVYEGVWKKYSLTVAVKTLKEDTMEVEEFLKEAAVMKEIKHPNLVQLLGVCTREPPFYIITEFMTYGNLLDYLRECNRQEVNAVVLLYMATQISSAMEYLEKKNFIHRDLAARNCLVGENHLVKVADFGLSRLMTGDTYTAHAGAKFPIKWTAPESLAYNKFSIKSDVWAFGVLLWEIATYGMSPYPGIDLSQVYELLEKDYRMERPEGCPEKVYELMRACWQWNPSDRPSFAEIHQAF
In words: abl kinase assay (ELISA or Alphascreen). The following applies: read-out: abl inhibition of enzyme activity. The method in brief: (§1)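 Affinity-purified PTK domain (~1.5 μg) phosphorylated biotinylated peptide (5 μM final) in 50 mM HEPES pH 7.5, 10 mM MgCl2, 150 mM NaCl, 10 μM-1 mM ATP. Phosphotyrosine read by PY20 ELISA or Alphascreen.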

For test [2], the target named is fes (Homo sapiens, UniProt P07332). In words: fes kinase assay (ELISA or Alphascreen). The following applies: read-out: fes inhibition of enzyme activity. Summed up:
as §1
On the technique in general: ELISA stands for enzyme-linked immunosorbent assay.

In test [3] the target is T2, fms (Homo sapiens, UniProt P07333).
T2 sequence (P07333 582-910 limits assumed): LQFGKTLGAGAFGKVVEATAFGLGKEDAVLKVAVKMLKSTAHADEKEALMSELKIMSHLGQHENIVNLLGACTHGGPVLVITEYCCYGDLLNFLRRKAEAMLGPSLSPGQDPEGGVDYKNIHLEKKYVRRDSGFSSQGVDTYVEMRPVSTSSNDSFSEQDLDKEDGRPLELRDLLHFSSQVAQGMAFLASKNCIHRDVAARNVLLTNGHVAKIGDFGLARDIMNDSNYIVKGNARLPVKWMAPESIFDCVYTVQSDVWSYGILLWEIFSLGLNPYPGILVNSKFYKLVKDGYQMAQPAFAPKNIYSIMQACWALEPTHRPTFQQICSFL
Put plainly: fms kinase assay (ELISA or Alphascreen). Particulars: read-out: fms inhibition of enzyme activity. Summed up:
as §1

Test [4] concerns the target hck (Homo sapiens, UniProt P08631). In words: hck kinase assay (ELISA or Alphascreen). The following applies: read-out: hck inhibition of enzyme activity. Here is the method: Kinase assays were performed in a 96 well capture-based ELISA assay or in 384 well Optiplates (Packard) using an Alphascreen Protein Tyrosine Kinase kit. In either case using approximately 1.5 μg of affinity purified PTK domain in the presence of 50 mM HEPES, pH 7.5, 10 mM MgCl2, 150 mM NaCl and 10 μM-1 mM ATP. The biotinylated substrate biotin-EGPWLEEEEEAYGWMDF-NH2 (SEQ ID NO:9) (final concentration 5 μM) was used as substrate. In the ELISA assay tyrosine phosphorylation was quantitated following transfer to an avidin coated ELISA plate using peroxidase-linked anti-phosphotyrosine antibody PY20. In the Alphascreen assay, Alphascreen phosphotyrosine acceptor beads followed by streptavidin donor beads were added under subdued light. The ELISA plates were read on a BMG Fluorostar, the Alphascreen plates were read on a Packard Fusion Alpha. Inhibitors were added to the assays fifteen minutes prior to the addition of ATP. Inhibitors were added in aqueous […] concentrations never exceeding 1%.

The target in test [5] is T3, Zap70 (Homo sapiens, UniProt P43403).
T3 sequence (P43403 338-600 limits assumed): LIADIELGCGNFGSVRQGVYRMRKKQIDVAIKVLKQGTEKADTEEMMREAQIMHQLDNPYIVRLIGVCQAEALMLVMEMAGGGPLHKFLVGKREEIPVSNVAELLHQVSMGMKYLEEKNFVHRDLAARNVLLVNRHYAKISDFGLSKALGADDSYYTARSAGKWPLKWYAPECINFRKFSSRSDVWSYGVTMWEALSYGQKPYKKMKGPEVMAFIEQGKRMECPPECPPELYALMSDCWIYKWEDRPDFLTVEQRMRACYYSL
In words: Zap70 kinase assay (ELISA or Alphascreen). Particulars: read-out: Zap70 inhibition of enzyme activity. Summed up:
as §1

Test [6] concerns the target T4, human JAK2 (Homo sapiens, UniProt O60674).
T4 construct: The kinase domain of human JAK2 was amplified from U937mRNA; His tag (from the pFastBac HTc vector) (N); made in house; host or cells: baculovirus; Sf9 for virus, High Five insect cells for production
In words: JAK2 kinase assay (ELISA or Alphascreen). Particulars: read-out: Jak2 inhibition of enzyme activity. The method in brief:
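His-tagged human JAK2 kinase domain from baculovirus-infected insect cells, ~1.5 μg per assay, in 50 mM HEPES pH 7.5, 10 mM MgCl2, 150 mM NaCl, with 10 μM–1 mM ATP and 5 μM biotinylated peptide substrate. Phosphotyrosine detected by PY20 ELISA or AlphaScreen.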

Test [7] concerns the target T5, human JAK3 (Homo sapiens, UniProt P52333).
T5 construct: The kinase domain of human JAK3 was amplified from U937mRNA; His tag (from the pFastBac HTb vector) (N); made in house; host or cells: baculovirus; Sf9 for virus, High Five insect cells for production
In words: JAK3 kinase assay (ELISA or Alphascreen). Particulars: read-out: Jak3 inhibition of enzyme activity. Summed up:
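His-tagged human JAK3 kinase domain from High Five cells, ~1.5 μg per assay, in 50 mM HEPES pH 7.5, 10 mM MgCl2, 150 mM NaCl, 10 μM-1 mM ATP, 5 μM biotinylated peptide substrate. Phosphotyrosine by PY20 ELISA or Alphascreen.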

fes, sequence (P07332 561-822 limits assumed, species assumed): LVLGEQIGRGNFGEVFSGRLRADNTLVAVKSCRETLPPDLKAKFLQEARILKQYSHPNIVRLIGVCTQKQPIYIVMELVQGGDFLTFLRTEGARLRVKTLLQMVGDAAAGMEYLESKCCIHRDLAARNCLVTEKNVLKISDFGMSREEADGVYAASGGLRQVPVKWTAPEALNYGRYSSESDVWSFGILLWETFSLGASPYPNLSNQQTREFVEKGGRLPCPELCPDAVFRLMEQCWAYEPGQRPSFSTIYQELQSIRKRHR
hck, sequence (P08631 262-515 limits assumed, species assumed): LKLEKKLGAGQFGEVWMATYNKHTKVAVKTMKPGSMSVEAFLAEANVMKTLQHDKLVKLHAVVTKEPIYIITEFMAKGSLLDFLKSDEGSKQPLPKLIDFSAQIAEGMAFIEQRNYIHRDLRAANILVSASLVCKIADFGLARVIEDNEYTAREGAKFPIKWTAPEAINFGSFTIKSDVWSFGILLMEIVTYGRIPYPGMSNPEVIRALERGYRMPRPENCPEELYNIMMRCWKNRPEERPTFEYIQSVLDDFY
T4 sequence (O60674 849-1124 limits assumed): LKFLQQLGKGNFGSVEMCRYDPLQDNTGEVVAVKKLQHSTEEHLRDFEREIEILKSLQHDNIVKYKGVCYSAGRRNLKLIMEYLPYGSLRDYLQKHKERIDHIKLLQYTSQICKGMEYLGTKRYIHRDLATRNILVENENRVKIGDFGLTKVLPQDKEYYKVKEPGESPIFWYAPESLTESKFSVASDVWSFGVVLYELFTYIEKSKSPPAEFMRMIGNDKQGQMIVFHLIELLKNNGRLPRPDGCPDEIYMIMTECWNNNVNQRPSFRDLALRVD
T5 sequence (P52333 822-1111 limits assumed): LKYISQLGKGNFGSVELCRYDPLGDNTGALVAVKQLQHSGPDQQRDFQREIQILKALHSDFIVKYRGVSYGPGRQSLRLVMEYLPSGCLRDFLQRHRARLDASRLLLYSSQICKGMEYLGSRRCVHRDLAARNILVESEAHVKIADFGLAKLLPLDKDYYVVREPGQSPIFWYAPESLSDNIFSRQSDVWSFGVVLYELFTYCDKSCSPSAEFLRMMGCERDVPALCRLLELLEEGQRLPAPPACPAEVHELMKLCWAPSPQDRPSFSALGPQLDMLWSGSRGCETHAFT

In the case of `COc1ccc(NC(=O)c2cncc(-c3cc(OC)c(OC)c(OC)c3)c2)c(OC)c1`, the inhibition at 10 µM in test [1], in test [2], in test [3], in test [4] and in test [5] was under 50% throughout.
`COc1cc(-c2cncc(C(=O)NCCO)c2)cc(OC)c1OC`: the inhibition at 10 µM is under 50% in test [1]; under 50% in test [2]; under 50% in test [3]; under 50% in test [4]; at least 50% in test [5].
Consider `COc1cc(-c2cncc(C(=O)NCCO)c2)ccc1O`, for which the inhibition at 10 µM in test [6], in test [7], in test [1], in test [2], in test [4] and in test [5] was under 50% in each case.
On to `O=C(NCc1ccc(Cl)c(Cl)c1)c1cncc(-c2ccc(O)cc2)c1`, for which the inhibition at 10 µM in test [6], in test [7], in test [1], in test [2], in test [4] and in test [5] was under 50% throughout.
For `Cc1ccc(CNC(=O)c2cncc(-c3ccc(O)cc3)c2)cc1`, the inhibition at 10 µM in test [6], in test [7], in test [1], in test [2], in test [4] and in test [5] was under 50% each time.
Consider `CC(NC(=O)c1cncc(-c2ccc(O)cc2)c1)c1ccc(F)cc1` (stereo not drawn), for which the inhibition at 10 µM in test [6], in test [7], in test [1], in test [2], in test [4] and in test [5] was under 50% each time.
`COc1cc(-c2cncc(C(=O)Nc3ccccc3)c2)c(Cl)c(OC)c1OC`: the inhibition at 10 µM in test [6], in test [7], in test [1], in test [2], in test [4] and in test [5] was under 50% in each case.
Regarding `COc1ccc(NC(=O)c2cncc(-c3cccs3)c2)c(OC)c1`, the inhibition at 10 µM in test [6], in test [1], in test [2], in test [3], in test [4] and in test [5] was under 50% each time.
Consider `Cc1ccccc1NC(=O)c1cncc(-c2cccs2)c1`, for which the inhibition at 10 µM is under 50% in test [6]; under 50% in test [7]; under 50% in test [1]; under 50% in test [2]; at least 50% in test [4]; under 50% in test [5].
`COc1cc(NC(=O)c2cncc(-c3cccs3)c2)cc(OC)c1OC`: the inhibition at 10 µM in test [6], in test [1], in test [2], in test [3], in test [4] and in test [5] was under 50% throughout.
With `COc1ccc(CNC(=O)c2cncc(-c3cccnc3)c2)cc1`, the inhibition at 10 µM in test [6], in test [7], in test [1], in test [2], in test [4] and in test [5] was under 50% each time.
Take `CC(C)C(CO)NC(=O)c1cncc(-c2ccc(F)cc2)c1` (stereo not drawn): the inhibition at 10 µM in test [6], in test [1], in test [2], in test [3], in test [4] and in test [5] was under 50% throughout.
Turning to `Cc1ccc(CNC(=O)c2cncc(-c3ccc(F)cc3)c2)cc1`, the inhibition at 10 µM in test [6], in test [1], in test [2], in test [3], in test [4] and in test [5] was under 50% throughout.
On to `Cc1cc(F)ccc1NC(=O)c1cncc(-c2ccc(F)cc2)c1`, for which the inhibition at 10 µM in test [6], in test [7], in test [1], in test [2], in test [4] and in test [5] was under 50% in each case.
On to `CN(Cc1ccccc1)C(=O)c1cncc(-c2ccc(F)cc2)c1`, for which the inhibition at 10 µM in test [6], in test [1], in test [2], in test [3], in test [4] and in test [5] was under 50% in each case.
For the compound `COc1cccc(-c2cncc(C(=O)N[C@H](C)c3ccccc3)c2)c1`, the inhibition at 10 µM in test [6], in test [7], in test [1], in test [2], in test [4] and in test [5] was under 50% in each case.
For the compound `COc1cccc(-c2cncc(C(=O)N[C@@H](C)c3ccccc3)c2)c1`, the inhibition at 10 µM in test [6], in test [7], in test [1], in test [2], in test [4] and in test [5] was under 50% in each case.
Turning to `O=C(NCc1ccc(F)cc1)c1cncc(-c2ccncc2)c1`, the inhibition at 10 µM in test [1] was under 50%; in test [2], at least 50%; in test [3] it was under 50%; in test [4] it was under 50%; in test [5], under 50%.
Take `O=C(NCc1ccc(F)cc1)c1cncc(-c2cccnc2)c1`: the inhibition at 10 µM in test [1], in test [2], in test [3], in test [4] and in test [5] was under 50% in each case.
Regarding `Cc1cc(F)ccc1NC(=O)c1cncc(-c2ccncc2)c1`, the inhibition at 10 µM in test [1], in test [2], in test [3], in test [4] and in test [5] was under 50% throughout.
As for `Cc1cc(F)ccc1NC(=O)c1cncc(-c2cccnc2)c1`, the inhibition at 10 µM in test [1], in test [2], in test [3], in test [4] and in test [5] was under 50% throughout.
